Experimental data taken from article PMC11336974 (2024).

Test system: miR-193a-3p (RNA, miRNA) AACUGGCCUACAAAGUCCCAGU
Experiment: single-strand gel shift
Settings: 37 °C 30 min, 200 µM Trp; 15% native PAGE, 0.5x TBE

N[C@@H](Cc1c[nH]c2ccccc12)C(=O)O was tested, and the binding was “yes”.
